Source: ChEMBL document CHEMBL2034838, “Quinazolino-benzothiazoles: fused pharmacophores as anticonvulsant agents” (Eur J Med Chem, 2012)

Tests used:
Mus musculus [1] = assay: Anticonvulsant activity in Swiss albino mouse assessed as decrease in time of maximum electroshock-induced tonic hind leg extension administered as ip at equimolar dose of phenytoin 30 mins before maximum electroshock seizure stimulation measured after 0.5 hrs (reference value: 15.40 +/- 0.50 sec); assay type: functional, Hindlimb
Mus musculus [2] = assay: Anticonvulsant activity in Swiss albino mouse assessed as decrease in time of subcutaneous PTZ-induced clonic hind leg extension administered as ip at equimolar dose of diazepam 30 mins before subcutaneous PTZ challenge measured after 0.5 hrs (reference value: 76.80 +/- 2.41 sec); assay type: functional, Hindlimb
Mus musculus [3] = organism: Mus musculus; assay: Neurotoxicity in Swiss albino mouse by rotarod test; assay type: toxicity, organism-based; details: in vivo
Mus musculus [4] = assay: Hepatotoxicity in Swiss albino mouse assessed as change in liver alkaline phosphatase level at 25 mg/kg/day for 15 days; assay type: toxicity, organism-based; details: in vivo, 360 h
Mus musculus [5] = assay: Hepatotoxicity in Swiss albino mouse assessed as change in liver SGOT level at 25 mg/kg/day for 15 days; assay type: toxicity, organism-based; details: in vivo, 360 h
Mus musculus [6] = assay: Hepatotoxicity in Swiss albino mouse assessed as change in liver SGPT level at 25 mg/kg/day for 15 days; assay type: toxicity, organism-based; details: in vivo, 360 h
Mus musculus [7] = assay: Hepatotoxicity in Swiss albino mouse assessed as change in liver total protein level assessed per 100 ml at 25 mg/kg/day for 15 days; assay type: toxicity, organism-based; details: in vivo, 360 h
Mus musculus [8] = assay: Anticonvulsant activity in ip dosed Swiss albino mouse assessed as decrease in time of subcutaneous PTZ-induced clonic hind leg extension administered 30 mins before subcutaneous PTZ challenge measured after 0.5 hrs (reference value: 76.80 +/- 2.41 sec); assay type: functional, Hindlimb

CCc1nc2ccc(Br)cc2c(=O)n1-c1nc2c(OC)cccc2s1
Time (Mus musculus [1]): 10.2 s | Time (Mus musculus [2]): 98.12 s | Activity (Mus musculus [3]): Non-toxic | Activity (Mus musculus [4]): Non-toxic | Activity (Mus musculus [5]): Non-toxic | Activity (Mus musculus [6]): Non-toxic | Activity (Mus musculus [7]): 1.82 g

CCc1nc2ccc(Br)cc2c(=O)n1-c1nc2ccccc2s1
Time (Mus musculus [1]): 7.4 s | Time (Mus musculus [2]): 91.6 s | Activity (Mus musculus [3]): Non-toxic | Activity (Mus musculus [4]): Non-toxic | Activity (Mus musculus [5]): Non-toxic | Activity (Mus musculus [6]): Non-toxic | Activity (Mus musculus [7]): 1.82 g

CCc1nc2ccc(Br)cc2c(=O)n1-c1nc2cc(Cl)ccc2s1
Time (Mus musculus [1]): 8.6 s | Time (Mus musculus [2]): 93 s | Activity (Mus musculus [3]): Non-toxic | Activity (Mus musculus [4]): Non-toxic | Activity (Mus musculus [5]): Non-toxic | Activity (Mus musculus [6]): Non-toxic | Activity (Mus musculus [7]): 1.75 g

CCc1nc2ccc(Br)cc2c(=O)n1-c1nc2cc(OC)ccc2s1
Time (Mus musculus [1]): 10.6 s | Time (Mus musculus [2]): 89.8 s

CCc1nc2ccc(Br)cc2c(=O)n1-c1nc2cc(C)ccc2s1
Time (Mus musculus [1]): 11.2 s | Time (Mus musculus [2]): 93.2 s

CCc1nc2ccc(Br)cc2c(=O)n1-c1nc2c(C)cc(C)cc2s1
Time (Mus musculus [1]): 11.8 s | Time (Mus musculus [2]): 91.6 s

CCc1nc2ccc(Br)cc2c(=O)n1-c1nc2ccc([N+](=O)[O-])cc2s1
Time (Mus musculus [1]): 12 s | Time (Mus musculus [2]): 91 s

CCc1nc2ccc(Br)cc2c(=O)n1-c1nc2c(C)cccc2s1
Time (Mus musculus [1]): 10.5 s | Time (Mus musculus [2]): 95.23 s

CCc1nc2ccc(Br)cc2c(=O)n1-c1nc2ccc(OC)cc2s1
Time (Mus musculus [1]): 9.7 s | Time (Mus musculus [2]): 99.45 s | Activity (Mus musculus [3]): Non-toxic | Activity (Mus musculus [4]): Non-toxic | Activity (Mus musculus [5]): Non-toxic | Activity (Mus musculus [6]): Non-toxic | Activity (Mus musculus [7]): 1.78 g

CCOc1cccc2sc(-n3c(CC)nc4ccc(Br)cc4c3=O)nc12
Time (Mus musculus [1]): 10.1 s | Time (Mus musculus [2]): 98 s | Activity (Mus musculus [3]): Non-toxic | Activity (Mus musculus [4]): Non-toxic | Activity (Mus musculus [5]): Non-toxic | Activity (Mus musculus [6]): Non-toxic | Activity (Mus musculus [7]): 1.82 g

CN1C(=O)CN=C(c2ccccc2)c2cc(Cl)ccc21 [DIAZEPAM]
Activity (Mus musculus [3]): Non-toxic | Time (Mus musculus [8]): 111.6 s
